Test results reported in US11242337B2, “Compounds useful for treating gastrointestinal tract disorders” (Ardelyx, Inc., priority 2017, dated 2022).

Experiments:
NHE3 [1] = biological target: T1, NHE3 (Homo sapiens, UniProt P48764); test: Cell-based assay of NHE-3 activity (pre-incubation inhibition), human; conditions: human Preincubation
T1 construct: expressed in transfected cells
T1 sequence (P48764 26-834): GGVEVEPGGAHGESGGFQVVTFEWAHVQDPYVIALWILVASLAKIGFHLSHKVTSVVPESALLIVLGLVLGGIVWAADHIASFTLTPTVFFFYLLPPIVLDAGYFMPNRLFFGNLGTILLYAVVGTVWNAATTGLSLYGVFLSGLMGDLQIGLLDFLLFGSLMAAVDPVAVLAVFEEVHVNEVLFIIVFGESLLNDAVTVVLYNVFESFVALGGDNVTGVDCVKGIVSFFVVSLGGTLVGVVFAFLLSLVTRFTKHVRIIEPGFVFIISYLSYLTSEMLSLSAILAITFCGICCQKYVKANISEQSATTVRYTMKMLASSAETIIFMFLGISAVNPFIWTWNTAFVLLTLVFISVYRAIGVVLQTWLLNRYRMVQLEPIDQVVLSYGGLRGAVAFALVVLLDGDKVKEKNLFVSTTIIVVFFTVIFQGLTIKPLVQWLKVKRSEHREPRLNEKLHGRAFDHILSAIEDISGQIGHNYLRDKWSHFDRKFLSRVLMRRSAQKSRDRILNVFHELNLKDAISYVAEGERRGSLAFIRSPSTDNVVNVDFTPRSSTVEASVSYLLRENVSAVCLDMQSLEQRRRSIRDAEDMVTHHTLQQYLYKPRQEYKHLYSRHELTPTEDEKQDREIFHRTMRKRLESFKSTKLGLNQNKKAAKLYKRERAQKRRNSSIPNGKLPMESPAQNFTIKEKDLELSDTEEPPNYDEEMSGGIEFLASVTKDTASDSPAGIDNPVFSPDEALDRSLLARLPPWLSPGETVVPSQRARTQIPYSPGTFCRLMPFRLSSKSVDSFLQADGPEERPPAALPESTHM
T1 sequence (Q99653 2-195 partner limits assumed): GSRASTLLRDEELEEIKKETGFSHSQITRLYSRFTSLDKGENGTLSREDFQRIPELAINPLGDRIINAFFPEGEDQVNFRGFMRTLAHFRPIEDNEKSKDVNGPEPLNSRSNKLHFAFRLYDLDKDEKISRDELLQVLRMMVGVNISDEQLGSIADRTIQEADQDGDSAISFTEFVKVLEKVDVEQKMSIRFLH
In short: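 Activity read as initial rate of BCECF fluorescence ratio change per minute (ex 439/505, em 538 nm) following NH4Cl prepulse acid loading. Compound (0–30 μM) present during 10 min Na+-free acidification at room temperature; cells were PS120 fibroblasts stably co-expressing human NHE3 and NHERF2.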

NHE3 [2] = biological target: T1, NHE3; test: Cell-based assay of NHE-3 activity (persistent inhibition), human; conditions: human Persistence, 60 min incubation then washout
In short: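 Persistent inhibition: compound (0-30 μM, 60 min, RT, NaCl-HEPES pH 7.4) removed before assay. Human NHE3/NHERF2 PS120 cells were then BCECF-loaded during NH4Cl pulse (30 min, 37 °C), acidified in Na+-free buffer, and Na+ added 10 min after washout; antiport measured as initial fluorescence-ratio change per minute.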

% inhibition (NHE3 [1]): C (>70%)
pIC50 (NHE3 [1]; 0-30 μM test compound): C (NHE3 pIC50 > 7)
% inhibition (NHE3 [2]): C (>70%)
pIC50 (NHE3 [2]): C (NHE3 pIC50 > 7)
Structure (SMILES): N#Cc1cc(Cl)cc2c1C[C@H](N1CCNCC1)[C@H]2Oc1ccc(S(=O)(=O)N[C@H]2CCN(C(=O)CCCNC(=O)NCCCCNC(=O)NCCCC(=O)N3CC[C@H](NS(=O)(=O)c4ccc(O[C@H]5c6cc(Cl)cc(C#N)c6C[C@@H]5N5CCNCC5)cc4)C3)C2)cc1 [Example 143, 4-([(1S,2S)-6-Chloro-4-cyano-2-(piperazin-1-yl)-2,3-dihydro-1H-inden-1-yl]oxy)-N—[(S)-1-(18-[(S)-3-([4-([(1S,2S)-6-chloro-4-cyano-2-(piperazin-1-yl)-2,3-dihydro-1H-inden-1-yl]oxy)phenyl]sulfonamido)pyrrolidin-1-yl]-6,13,18-trioxo-5,7,12,14-tetraazaoctadecanoyl)pyrrolidin-3-yl]benzenesulfonamide]
